Results: the kinase profiling compilation of Christmann-Franck et al. (2016)

Tests used:
Experiment in all cases: KINOMEscan competition binding
Settings in all cases: compound 10.0 µM
[1] = biological target: MST1R (human) (UniProt Q04912)
[2] = biological target: PTK2 (human) (UniProt Q05397)
[3] = biological target: NTRK2 (human) (UniProt Q16620)
[4] = biological target: MAPK3 (human) (UniProt P27361)
[5] = biological target: PAK3 (human) (UniProt O75914)
[6] = biological target: CDKL2 (human) (UniProt Q92772)
[7] = biological target: YES1 (human) (UniProt P07947)
[8] = biological target: PAK6 (human) (UniProt Q9NQU5)
[9] = biological target: CSNK1G2 (human) (UniProt P78368)
[10] = biological target: CAMK4 (human) (UniProt Q16566)
[11] = biological target: BLK (human) (UniProt P51451)
[12] = biological target: WEE1 (human) (UniProt P30291)
[13] = tested on: EGFR (human), P00533 [752-759 del]
[14] = biological target: MAPKAPK5 (human) (UniProt Q8IW41)
[15] = biological target: PRKACB (human) (UniProt P22694)
[16] = biological target: PRKACA (human) (UniProt P17612)
[17] = biological target: MAP3K11 (human) (UniProt Q16584)
[18] = biological target: EPHA3 (human) (UniProt P29320)
[19] = biological target: PIK3CB (human) (UniProt P42338)
[20] = biological target: ITK (human) (UniProt Q08881)
[21] = biological target: LIMK2 (human) (UniProt P53671)
[22] = biological target: ROS1 (human) (UniProt P08922)
[23] = biological target: ADCK4 (human) (UniProt Q96D53)
[24] = biological target: RET (human) (UniProt P07949)
[25] = biological target: CAMK2G (human) (UniProt Q13555)
[26] = biological target: MET (human) (UniProt P08581)
[27] = biological target: BTK (human) (UniProt Q06187)
[28] = biological target: PRKAA1 (human) (UniProt Q13131)
[29] = biological target: FLT1 (human) (UniProt P17948)
[30] = biological target: CAMK2D (human) (UniProt Q13557)
[31] = biological target: CDC42BPB (human) (UniProt Q9Y5S2)
[32] = biological target: PIK3C2B (human) (UniProt O00750)
[33] = biological target: FGR (human) (UniProt P09769)
[34] = biological target: IGF1R (human) (UniProt P08069)
[35] = biological target: RIPK1 (human) (UniProt Q13546)
[36] = biological target: SRPK1 (human) (UniProt Q96SB4)
[37] = biological target: PRKCD (human) (UniProt Q05655)
[38] = biological target: EPHB2 (human) (UniProt P29323)
[39] = biological target: RPS6KA6 KD1 (human) (UniProt Q9UK32)
[40] = biological target: NEK5 (human) (UniProt Q6P3R8)
[41] = biological target: EPHA7 (human) (UniProt Q15375)
[42] = biological target: CDK9 (human) (UniProt P50750)

Chain of CSNK1G2 (human) (P78368 whole entry, looked up): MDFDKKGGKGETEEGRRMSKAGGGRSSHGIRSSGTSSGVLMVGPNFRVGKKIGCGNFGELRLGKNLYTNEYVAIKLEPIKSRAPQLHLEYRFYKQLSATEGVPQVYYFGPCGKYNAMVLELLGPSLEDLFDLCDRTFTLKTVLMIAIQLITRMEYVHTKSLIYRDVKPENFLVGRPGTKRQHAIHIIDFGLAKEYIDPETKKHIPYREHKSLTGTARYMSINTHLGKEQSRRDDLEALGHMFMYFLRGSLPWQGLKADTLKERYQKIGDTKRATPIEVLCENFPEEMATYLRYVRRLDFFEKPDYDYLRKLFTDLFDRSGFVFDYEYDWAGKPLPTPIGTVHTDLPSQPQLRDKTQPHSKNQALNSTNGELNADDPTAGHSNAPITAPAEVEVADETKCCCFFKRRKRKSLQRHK
Chain of MST1R (human) (Q04912 whole entry, looked up): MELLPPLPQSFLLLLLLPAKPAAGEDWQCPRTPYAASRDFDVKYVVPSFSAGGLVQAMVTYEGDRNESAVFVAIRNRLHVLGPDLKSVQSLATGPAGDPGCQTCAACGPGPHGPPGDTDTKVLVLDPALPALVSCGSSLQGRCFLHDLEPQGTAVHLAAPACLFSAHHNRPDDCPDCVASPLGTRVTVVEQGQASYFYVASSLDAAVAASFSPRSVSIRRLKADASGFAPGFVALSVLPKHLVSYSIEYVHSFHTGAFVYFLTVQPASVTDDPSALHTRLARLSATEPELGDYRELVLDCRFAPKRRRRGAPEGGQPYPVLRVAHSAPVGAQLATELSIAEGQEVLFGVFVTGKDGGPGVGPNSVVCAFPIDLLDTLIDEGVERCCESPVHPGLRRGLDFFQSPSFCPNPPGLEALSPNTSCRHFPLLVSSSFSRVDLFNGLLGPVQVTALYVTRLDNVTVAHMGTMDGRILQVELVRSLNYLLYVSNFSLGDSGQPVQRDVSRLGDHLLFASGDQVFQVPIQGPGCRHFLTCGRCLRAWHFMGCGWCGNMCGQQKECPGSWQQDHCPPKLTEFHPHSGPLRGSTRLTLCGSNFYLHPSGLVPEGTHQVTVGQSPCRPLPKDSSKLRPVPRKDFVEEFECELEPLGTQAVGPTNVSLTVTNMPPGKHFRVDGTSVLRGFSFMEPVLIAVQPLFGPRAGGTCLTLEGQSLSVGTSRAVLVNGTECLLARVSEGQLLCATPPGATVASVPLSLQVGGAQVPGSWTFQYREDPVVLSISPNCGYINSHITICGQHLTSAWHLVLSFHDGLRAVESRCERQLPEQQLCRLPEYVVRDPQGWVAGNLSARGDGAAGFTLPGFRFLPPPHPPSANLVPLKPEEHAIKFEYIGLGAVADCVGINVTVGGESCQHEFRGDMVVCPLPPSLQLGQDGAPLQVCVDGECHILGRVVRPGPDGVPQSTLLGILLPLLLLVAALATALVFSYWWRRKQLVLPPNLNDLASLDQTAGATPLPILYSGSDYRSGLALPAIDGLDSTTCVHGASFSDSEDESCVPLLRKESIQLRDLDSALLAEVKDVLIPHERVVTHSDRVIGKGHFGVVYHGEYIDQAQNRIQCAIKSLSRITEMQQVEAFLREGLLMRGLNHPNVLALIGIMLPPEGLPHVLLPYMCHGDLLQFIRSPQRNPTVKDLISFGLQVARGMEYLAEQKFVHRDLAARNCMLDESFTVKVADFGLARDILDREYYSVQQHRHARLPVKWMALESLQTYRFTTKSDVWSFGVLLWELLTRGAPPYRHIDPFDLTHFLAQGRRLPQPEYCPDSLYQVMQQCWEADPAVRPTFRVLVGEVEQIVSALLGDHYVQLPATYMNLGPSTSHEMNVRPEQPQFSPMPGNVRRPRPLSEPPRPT
Chain of SRPK1 (human) (Q96SB4 whole entry, looked up): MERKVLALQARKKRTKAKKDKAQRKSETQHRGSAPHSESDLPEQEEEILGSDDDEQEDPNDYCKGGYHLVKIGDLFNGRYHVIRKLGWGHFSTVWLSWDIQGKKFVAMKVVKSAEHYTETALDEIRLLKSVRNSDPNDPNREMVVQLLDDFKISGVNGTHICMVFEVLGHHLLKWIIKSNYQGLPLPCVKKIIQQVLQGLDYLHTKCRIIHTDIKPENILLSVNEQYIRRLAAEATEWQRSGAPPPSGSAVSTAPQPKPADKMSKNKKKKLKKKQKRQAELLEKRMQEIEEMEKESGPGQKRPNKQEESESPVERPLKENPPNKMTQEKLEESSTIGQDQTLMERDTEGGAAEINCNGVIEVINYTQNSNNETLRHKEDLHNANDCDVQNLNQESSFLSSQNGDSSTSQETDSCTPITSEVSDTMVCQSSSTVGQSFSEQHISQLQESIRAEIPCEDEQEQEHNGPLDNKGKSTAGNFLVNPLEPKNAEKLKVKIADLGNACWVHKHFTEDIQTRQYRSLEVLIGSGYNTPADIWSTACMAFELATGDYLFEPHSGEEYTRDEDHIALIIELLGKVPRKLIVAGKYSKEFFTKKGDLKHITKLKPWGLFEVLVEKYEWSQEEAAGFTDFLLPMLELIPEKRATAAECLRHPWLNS
Chain of MAP3K11 (human) (Q16584 whole entry, looked up): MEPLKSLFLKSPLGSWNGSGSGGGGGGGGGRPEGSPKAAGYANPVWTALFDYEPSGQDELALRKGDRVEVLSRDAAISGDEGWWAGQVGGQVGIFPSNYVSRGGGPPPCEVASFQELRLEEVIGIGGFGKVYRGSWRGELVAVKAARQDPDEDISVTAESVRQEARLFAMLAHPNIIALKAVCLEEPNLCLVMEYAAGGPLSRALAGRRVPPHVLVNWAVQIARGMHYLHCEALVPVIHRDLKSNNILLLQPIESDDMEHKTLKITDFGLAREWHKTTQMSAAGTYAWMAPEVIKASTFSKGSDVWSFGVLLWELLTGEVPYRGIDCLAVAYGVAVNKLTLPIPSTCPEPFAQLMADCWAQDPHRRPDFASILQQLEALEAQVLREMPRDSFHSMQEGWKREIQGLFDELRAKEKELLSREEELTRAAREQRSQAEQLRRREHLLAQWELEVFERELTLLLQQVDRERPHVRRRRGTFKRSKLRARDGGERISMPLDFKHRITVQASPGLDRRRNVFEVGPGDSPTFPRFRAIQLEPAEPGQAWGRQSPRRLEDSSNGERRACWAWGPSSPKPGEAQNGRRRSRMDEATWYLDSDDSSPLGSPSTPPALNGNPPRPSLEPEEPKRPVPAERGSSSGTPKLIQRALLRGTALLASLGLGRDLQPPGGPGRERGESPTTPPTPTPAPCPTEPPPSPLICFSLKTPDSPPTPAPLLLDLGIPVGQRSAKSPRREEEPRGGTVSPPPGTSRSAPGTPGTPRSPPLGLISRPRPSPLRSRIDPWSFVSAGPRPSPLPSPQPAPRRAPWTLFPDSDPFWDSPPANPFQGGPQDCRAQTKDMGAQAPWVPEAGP
Chain of EPHB2 (human) (P29323 whole entry, looked up): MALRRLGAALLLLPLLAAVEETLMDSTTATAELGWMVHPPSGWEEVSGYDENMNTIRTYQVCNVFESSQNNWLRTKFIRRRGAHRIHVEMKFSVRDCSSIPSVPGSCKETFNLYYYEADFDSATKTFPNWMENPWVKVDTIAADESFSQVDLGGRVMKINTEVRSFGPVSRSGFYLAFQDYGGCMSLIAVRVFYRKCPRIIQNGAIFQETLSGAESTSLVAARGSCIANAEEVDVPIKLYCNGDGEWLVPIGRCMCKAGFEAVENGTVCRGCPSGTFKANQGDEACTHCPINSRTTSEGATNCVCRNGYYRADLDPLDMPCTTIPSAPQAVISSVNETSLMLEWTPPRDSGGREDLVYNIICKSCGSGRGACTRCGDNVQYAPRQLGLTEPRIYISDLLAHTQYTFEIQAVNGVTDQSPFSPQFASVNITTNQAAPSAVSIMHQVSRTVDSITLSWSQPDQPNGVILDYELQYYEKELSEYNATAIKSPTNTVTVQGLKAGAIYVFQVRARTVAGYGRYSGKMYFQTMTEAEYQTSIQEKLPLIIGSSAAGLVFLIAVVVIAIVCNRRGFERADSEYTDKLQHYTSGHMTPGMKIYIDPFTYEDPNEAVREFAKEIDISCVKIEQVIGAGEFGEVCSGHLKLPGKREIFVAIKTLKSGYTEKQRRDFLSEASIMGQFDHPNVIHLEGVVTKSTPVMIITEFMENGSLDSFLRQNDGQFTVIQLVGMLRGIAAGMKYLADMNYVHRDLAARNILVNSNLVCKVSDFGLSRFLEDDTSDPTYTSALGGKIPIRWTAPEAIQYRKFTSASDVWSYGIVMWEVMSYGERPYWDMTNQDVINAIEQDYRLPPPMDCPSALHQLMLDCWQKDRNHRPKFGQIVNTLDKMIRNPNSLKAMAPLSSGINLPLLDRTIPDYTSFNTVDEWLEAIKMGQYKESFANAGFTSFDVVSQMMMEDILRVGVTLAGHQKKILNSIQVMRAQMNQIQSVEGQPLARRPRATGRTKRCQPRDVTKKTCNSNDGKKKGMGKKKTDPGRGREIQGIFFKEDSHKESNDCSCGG
Chain of WEE1 (human) (P30291 whole entry, looked up): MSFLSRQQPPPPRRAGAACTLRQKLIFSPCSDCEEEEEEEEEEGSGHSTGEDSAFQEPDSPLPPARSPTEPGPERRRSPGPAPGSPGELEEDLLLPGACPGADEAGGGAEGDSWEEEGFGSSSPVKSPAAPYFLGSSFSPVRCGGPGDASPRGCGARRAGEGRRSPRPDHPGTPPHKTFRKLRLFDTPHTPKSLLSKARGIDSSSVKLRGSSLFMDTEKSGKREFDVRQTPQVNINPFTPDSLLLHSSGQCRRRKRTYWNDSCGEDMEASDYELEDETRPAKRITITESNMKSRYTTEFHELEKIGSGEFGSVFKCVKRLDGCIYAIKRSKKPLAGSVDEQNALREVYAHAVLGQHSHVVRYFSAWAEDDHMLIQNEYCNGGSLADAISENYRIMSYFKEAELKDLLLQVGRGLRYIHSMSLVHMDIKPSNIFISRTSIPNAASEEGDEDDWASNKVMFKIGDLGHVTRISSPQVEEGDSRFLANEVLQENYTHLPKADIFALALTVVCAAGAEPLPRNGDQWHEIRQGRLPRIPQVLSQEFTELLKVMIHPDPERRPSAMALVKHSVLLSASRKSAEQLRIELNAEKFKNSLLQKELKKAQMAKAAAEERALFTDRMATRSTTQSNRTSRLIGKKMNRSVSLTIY

COc1cc(N2CCN(C)CC2)ccc1Nc1ncc2c(n1)Nc1ccccc1NC2=O
kinase still bound, per cent of control [1]: 100% | kinase still bound, per cent of control [2]: 73% | kinase still bound, per cent of control [3]: 2.4% | kinase still bound, per cent of control [4]: 93% | kinase still bound, per cent of control [5]: 82% | kinase still bound, per cent of control [6]: 9.5% | kinase still bound, per cent of control [7]: 68% | kinase still bound, per cent of control [8]: 100% | kinase still bound, per cent of control [9]: 92% | kinase still bound, per cent of control [10]: 100% | kinase still bound, per cent of control [11]: 49% | kinase still bound, per cent of control [12]: 86% | kinase still bound, per cent of control [13]: 69% | kinase still bound, per cent of control [14]: 100% | kinase still bound, per cent of control [15]: 100% | kinase still bound, per cent of control [16]: 100% | kinase still bound, per cent of control [17]: 88% | kinase still bound, per cent of control [18]: 61% | kinase still bound, per cent of control [19]: 88% | kinase still bound, per cent of control [20]: 100% | kinase still bound, per cent of control [21]: 100% | kinase still bound, per cent of control [22]: 82% | kinase still bound, per cent of control [23]: 84% | kinase still bound, per cent of control [24]: 95% | kinase still bound, per cent of control [25]: 100% | kinase still bound, per cent of control [26]: 82% | kinase still bound, per cent of control [27]: 23% | kinase still bound, per cent of control [28]: 87% | kinase still bound, per cent of control [29]: 45% | kinase still bound, per cent of control [30]: 92% | kinase still bound, per cent of control [31]: 100% | kinase still bound, per cent of control [32]: 100% | kinase still bound, per cent of control [33]: 73% | kinase still bound, per cent of control [34]: 100% | kinase still bound, per cent of control [35]: 100% | kinase still bound, per cent of control [36]: 100% | kinase still bound, per cent of control [37]: 100% | kinase still bound, per cent of control [38]: 82% | kinase still bound, per cent of control [39]: 93% | kinase still bound, per cent of control [40]: 100% | kinase still bound, per cent of control [41]: 100% | kinase still bound, per cent of control [42]: 100%

COc1cc(N2CCN(C)CC2)ccc1Nc1ncc2c(n1)N(C)c1ccccc1N(C)C2=O
kinase still bound, per cent of control [1]: 100% | kinase still bound, per cent of control [2]: 85% | kinase still bound, per cent of control [3]: 100% | kinase still bound, per cent of control [4]: 100% | kinase still bound, per cent of control [5]: 93% | kinase still bound, per cent of control [6]: 81% | kinase still bound, per cent of control [7]: 100% | kinase still bound, per cent of control [8]: 100% | kinase still bound, per cent of control [9]: 100% | kinase still bound, per cent of control [10]: 100% | kinase still bound, per cent of control [11]: 93% | kinase still bound, per cent of control [12]: 92% | kinase still bound, per cent of control [13]: 100% | kinase still bound, per cent of control [14]: 100% | kinase still bound, per cent of control [15]: 100% | kinase still bound, per cent of control [16]: 100% | kinase still bound, per cent of control [17]: 100% | kinase still bound, per cent of control [18]: 81% | kinase still bound, per cent of control [19]: 83% | kinase still bound, per cent of control [20]: 98% | kinase still bound, per cent of control [21]: 86% | kinase still bound, per cent of control [22]: 21% | kinase still bound, per cent of control [23]: 82% | kinase still bound, per cent of control [24]: 100% | kinase still bound, per cent of control [25]: 95% | kinase still bound, per cent of control [26]: 90% | kinase still bound, per cent of control [27]: 78% | kinase still bound, per cent of control [28]: 92% | kinase still bound, per cent of control [29]: 100% | kinase still bound, per cent of control [30]: 99% | kinase still bound, per cent of control [31]: 100% | kinase still bound, per cent of control [32]: 100% | kinase still bound, per cent of control [33]: 100% | kinase still bound, per cent of control [34]: 100% | kinase still bound, per cent of control [35]: 100% | kinase still bound, per cent of control [36]: 100% | kinase still bound, per cent of control [37]: 100% | kinase still bound, per cent of control [38]: 68% | kinase still bound, per cent of control [39]: 100% | kinase still bound, per cent of control [40]: 100% | kinase still bound, per cent of control [41]: 100% | kinase still bound, per cent of control [42]: 100%

COc1cc(N2CCN(C)CC2)ccc1Nc1ncc2c(n1)N(C)c1sccc1C(=O)N2C
kinase still bound, per cent of control [1]: 76% | kinase still bound, per cent of control [2]: 13% | kinase still bound, per cent of control [3]: 83% | kinase still bound, per cent of control [4]: 95% | kinase still bound, per cent of control [5]: 100% | kinase still bound, per cent of control [6]: 100% | kinase still bound, per cent of control [7]: 87% | kinase still bound, per cent of control [8]: 74% | kinase still bound, per cent of control [9]: 87% | kinase still bound, per cent of control [10]: 80% | kinase still bound, per cent of control [11]: 100% | kinase still bound, per cent of control [12]: 100% | kinase still bound, per cent of control [13]: 78% | kinase still bound, per cent of control [14]: 69% | kinase still bound, per cent of control [15]: 100% | kinase still bound, per cent of control [16]: 97% | kinase still bound, per cent of control [17]: 100% | kinase still bound, per cent of control [18]: 71% | kinase still bound, per cent of control [19]: 90% | kinase still bound, per cent of control [20]: 81% | kinase still bound, per cent of control [21]: 83% | kinase still bound, per cent of control [22]: 100% | kinase still bound, per cent of control [23]: 78% | kinase still bound, per cent of control [24]: 85% | kinase still bound, per cent of control [25]: 57% | kinase still bound, per cent of control [26]: 96% | kinase still bound, per cent of control [27]: 82% | kinase still bound, per cent of control [28]: 99% | kinase still bound, per cent of control [29]: 100% | kinase still bound, per cent of control [30]: 59% | kinase still bound, per cent of control [31]: 99% | kinase still bound, per cent of control [32]: 85% | kinase still bound, per cent of control [33]: 98% | kinase still bound, per cent of control [34]: 100% | kinase still bound, per cent of control [35]: 100% | kinase still bound, per cent of control [36]: 100% | kinase still bound, per cent of control [37]: 100% | kinase still bound, per cent of control [38]: 100% | kinase still bound, per cent of control [39]: 96% | kinase still bound, per cent of control [40]: 94% | kinase still bound, per cent of control [41]: 92% | kinase still bound, per cent of control [42]: 76%
